Results reported in patent US8357504B2, “Method and kit for the microbiological determination of vitamins in substance mixtures” (IFP Privates Institut fur Produktqualitat GmbH, priority 2004, dated 2013).
Where “and” joins values, the source holds several entries; their conditions need not be identical. Equal values may be shown once.

Columns and labels:
[1] = system: Lactobacillus rhamnosus ATCC 7469; experiment: Microbiological riboflavin determination (growth turbidity, riboflavin assay medium); type: cell-based; conditions: for Average value (measurement at 630 nm): number 3; for Measurement at 630 nm: single well
Text: The preparation of the microtitration plate and the determination of riboflavin was effected as in Example 1, except only that Lactobacillus rhamnosus ATCC 7469 was employed as test organism. As assay medium there was employed Difco™ riboflavin assay medium, containing cas amino acids 10.0 g/L, dextrose 20.0 g/L, sodium acetate 15.0 g/L, dipotassium hydrogen phosphate 1.0 g/L, potassium dihydrogen phosphate 1.0 g/L, L-asparagine 0.6 g/L, L-cystine 0.2 g/L, DL-tryptophane 0.2 g/L, magnesium sulfate 0.4 g/L, adenine sulfate 20.0 mg/L, guanine hydrochloride 20.0 mg/L, uracil 20.0 mg/L, xanthin 20 mg/L, iron sulfate 20.0 mg/L, manganese sulfate 20.0 mg/L, sodium chloride 20.0 mg/L, pyridoxine hydrochloride 4.0 mg/L, pyridoxal hydrochloride 4.0 mg/L, p-aminobenzoic acid 2.0 mg/L, calcium pantothenate 800 μg/L, folic acid 800 μg/L, nicotinic acid 800 μg/L, thiamine hydrochloride 400 μg/L, biotin 1.0 μg/L. The storage medium additionally contained 200 mM trehalose.

[2] = system: Saccharomyces cerevisae ATCC 9080; experiment: Microbiological B6 pyridoxine determination (growth turbidity, pyridoxine-Y-medium); type: cell-based; conditions: for Average value (measurement at 630 nm): number 3; for Measurement at 630 nm: single well
Method: The preparation of the microtitration plate and the determination of B6-pyridoxine was effected as in Example 1, except only that as test organism Saccharomyces cerevisae ATCC 9080 was employed. As assay medium there was employed Difco™ pyridoxine-Y-medium, containing dextrose 40.0 g/L, L-asparagine 4.0 g/L, ammonium sulfate 4.0 g/L potassium dihydrogen phosphate 3.0 g/L, magnesium sulfate 1.0 g/L, calcium chloride 0.49 g/L, DL-methionine 40.0 mg/L, DL-tryptophane 40.0 mg/L, DL-isoleucin 40.0 mg/L, DL-valin 40.0 mg/L, L-histidine hydrochloride 20.0 mg/L, riboflavin 20.0 mg/L, biotin 8.0 mg/L, inositol 5.0 mg/L, iron sulfate 500 μg/L, thiamine hydrochloride 400.0 μg/L, calcium pantothenate 400.0 μg/L, nicotinic acid 400.0 μg/L, boric acid 200.0 μg/L, potassium iodide 200.0 μg/L, ammonium molybdate 40.0 μg/L, manganese sulfate 80.0 μg/L, copper sulfate 90.0 μg/L, zinc sulfate 80.0 μg/L. The storage medium further contained 200 mM trehalose.

[3] = system: Lactobacillus plantarum ATCC 8014; experiment: Microbiological biotin determination (growth turbidity, biotin assay medium); type: cell-based; conditions: for Average value (measurement at 630 nm): number 3; for Measurement at 630 nm: single well
Method: The preparation of the microtitration plate and determination of biotin was effected as in Example 1 with Lactobacillus plantarum ATCC 8014. There served as assay medium Difco™ biotin assay medium, containing casamino acids 12.0 g/L, dextrose 40.0 g/L, sodium acetate 20.0 g/L, L-cystein 0.2 g/L, DL-tryptophane 0.2 g/L, adenine sulfate 20.0 mg/L, guanine hydrochloride 20.0 mg/L, uracil 20.0 mg/L, thiamine hydrochloride 2.0 mg/L, riboflavin 2.0 mg/L, niacin 2.0 mg/L, calcium pantothenate 2.0 mg/L, pyridoxine hydrochloride 4.0 mg/L, p-aminobenzoic acid 0.2 mg/L, magnesium sulfate (water-free) 0.4 mg/L, sodium chloride 20.0 mg/L, iron sulfate 20.0 mg/L, manganese sulfate 20.0 mg/L, potassium dihydrogen phosphate 1.0 g/L, dipotassium hydrogen phosphate 1.0 g/L. The storage medium further contain 200 mM trehalose. The determined standard curve is show in FIG. 4.

[4] = system: Lactobacillus rhamnosus ATCC 7469; experiment: Microbiological folic acid determination (growth turbidity, folic acid-casein medium); type: cell-based; conditions: for Average value (measurement at 630 nm): number 3; for Measurement at 630 nm: single well
Text: The preparation of the microtitration plate and the determination of folic acid (pteroylglutaminic acid and other folic acid conjugates) was effected as in Example 1, except only that Lactobacillus rhamnosus ATCC 7469 was employed as test organism. There was employed as assay medium Difco™ folic acid-casein medium, containing activated carbon treated pancreas digested casein 10.0 g/L, dextrose 40.0 g/L, sodium acetate 40.0 g/L, potassium dihydrogen phosphate 1.0 g/L, dipotassium hydrogen phosphate 1.0 g/L, DL-tryptophane 0.2 g/L, L-asparagine 0.6 g/L, L-cystein hydrochloride 0.5 g/L, adenine sulfate 10.0 mg/L, guanine hydrochloride 10.0 mg/L, uracil 10.0 mg/L, xanthin 20.0 mg/L, Polysorbate-80 0.1 g/L, glutathion (reduced) 5.0 mg/L, magnesium sulfate 0.2 g/L, sodium chloride 20.0 mg/L, iron sulfate 20.0 mg/L, manganese sulfate 15.0 mg/L, riboflavin 1.0 mg/L, p-aminobenzoic acid 2.0 mg/L, pyridoxine hydrochloride 4.0 mg/L, thiamine hydrochloride 400.0 μg/L, calcium pantothenate 800.0 μg/L, nicotinic acid 800.0 μg/L, biotin 20.0 μg/L, 0.05% ascorbic acid. The storage medium contained 200 mM trehalose. The folic acid standard was dissolved in 100 mMol potassium phosphate buffer, pH 6.1, 0.1% ascorbic acid.

[5] = system: Lactobacillus plantarum (ATCC 8014); conditions: cited from earlier work
[6] = system: Lactobacillus planatarum ATTC 8014; experiment: Microbiological calcium pantothenate determination (growth turbidity); type: cell-based; conditions: for Average value (measurement at 630 nm): number 3; for Measurement at 630 nm: single well
Method: [table] The preparation of the microtitration plate and the determination of […] 800 μg/L, p-aminobenzoic acid 200.0 μg/L, biotin 1.0 μg/L, potassium dihydrogen phosphate 1.0 g/L, dipotassium hydrogen phosphate 1.0 g/L, magnesium sulfate 0.4 g/L, sodium chloride 20.0 mg/L, iron sulfate 20.0 mg/L, manganese sulfate 20.0 mg/L. The storage medium further contained 200 mM trehalose.

[7] = system: Lactobacillus delbrueckii subsp. Lactis (L. leichmanii) ATCC 7830; experiment: Microbiological vitamin B12 determination (growth turbidity, B12 assay medium); type: cell-based; conditions: for Average value (measurement at 630 nm): number 3; for Measurement at 630 nm: single well
Text: The preparation of the microtitration plate and the determination of vitamin B12 (cyanocobalamine, hydroxycobalamine) was effected as in Example 1, except only that Lactobacillus delbrueckii subsp. Lactis (L. leichmanii) ATCC 7830 was employed as test organism. As assay medium there served Difco™ B12 assay medium, containing casamino acids 15.0 g/L, dextrose 40.0 g/L, asparagine 0.2 g/L, sodium acetate 20.0 g/L, Ascorbic acid 4.0 g/L, L-cystein 4.0 g/L, DL-tryptophane 0.4 g/L, adenine sulfate 20.0 mg/L, guanine hydrochloride 20.0 mg/L, uracil 20.0 mg/L, xanthin 20.0 mg/L, polysorbate-80 2.0 g/L, magnesium sulfate (water-free) 0.4 mg/L, sodium chloride 20.0 mg/L, iron sulfate 20.0 mg/L, manganese sulfate 20.0 mg/L, riboflavin 1.0 mg/L, p-aminobenzoic acid 2.0 mg/L, pyridoxine hydrochloride 4.0 mg/L, thiamine hydrochloride 1.0 mg/L, calcium pantothenate 1.0 mg/L, niacin 2.0 mg/L, biotin 10.0 ug/L, pyridoxine hydrochloride 4.0 mg/L, pyridoxal hydrochloride 4.0 mg/L, pyridoxamine hydrochloride 800.0 ug/L, […], potassium dihydrogen phosphate 1.0 g/L, dipotassium hydrogen phosphate 1.0 g/L. The storage medium further contained 200 mM trehalose.

[8] = riboflavin standard 0.1 mg/100 g
[9] = riboflavin standard 0.2 mg/100 g
[10] = riboflavin standard 0.3 mg/100 g
[11] = riboflavin standard 0.4 mg/100 g
[12] = riboflavin standard 0.5 mg/100 g
[13] = B6-pyridoxine standard 0.004 mg/100 g
[14] = B6-pyridoxine standard 0.008 mg/100 g
[15] = B6-pyridoxine standard 0.012 mg/100 g
[16] = B6-pyridoxine standard 0.016 mg/100 g
[17] = B6-pyridoxine standard 0.024 mg/100 g
[18] = folic acid standard 3.75 pg/150 μl (0.25 μg/100 g)
[19] = folic acid standard 7.5 pg/150 μl (0.5 μg/100 g)
[20] = folic acid standard 15 pg/150 μl (1 μg/100 g)
[21] = folic acid standard 22.5 pg/150 μl (1.5 μg/100 g)
[22] = folic acid standard 30 pg/150 μl (2 μg/100 g)
[23] = Ca pantothenate standard 0.08 mg/100 g
[24] = Ca pantothenate standard 0.16 mg/100 g
[25] = Ca pantothenate standard 0.32 mg/100 g
[26] = Ca pantothenate standard 0.48 mg/100 g
[27] = Ca pantothenate standard 0.64 mg/100 g
[28] = vitamin B12 standard 0.1 μg/100 g
[29] = vitamin B12 standard 0.2 μg/100 g
[30] = vitamin B12 standard 0.3 μg/100 g
[31] = vitamin B12 standard 0.4 μg/100 g
[32] = vitamin B12 standard 0.8 μg/100 g

## Cc1cc2nc3c(=O)[nH]c(=O)nc-3n(C[C@H](O)[C@H](O)[C@H](O)CO)c2cc1C [B2 Riboflavin, riboflavin]
[1]; [8]
  Average value (measurement at 630 nm): 0.204
  Measurement at 630 nm: 0.196 and 0.209 and 0.206
[1]; [9]
  Average value (measurement at 630 nm): 0.398
  Measurement at 630 nm: 0.404 and 0.408 and 0.383
[1]; [10]
  Average value (measurement at 630 nm): 0.623
  Measurement at 630 nm: 0.624 and 0.616 and 0.628
[1]; [11]
  Average value (measurement at 630 nm): 0.759
  Measurement at 630 nm: 0.752 and 0.755 and 0.771
[1]; [12]
  Average value (measurement at 630 nm): 0.88
  Measurement at 630 nm: 0.855 and 0.886 and 0.9

## Cc1ncc(CO)c(CO)c1O [B6-pyridoxine, pyridoxine]
[2]; [13]
  Average value (measurement at 630 nm): 0.299
  Measurement at 630 nm: 0.298 and 0.297 and 0.301
[2]; [14]
  Average value (measurement at 630 nm): 0.4
  Measurement at 630 nm: 0.407 and 0.398 and 0.394
[2]; [15]
  Average value (measurement at 630 nm): 0.538
  Measurement at 630 nm: 0.522 and 0.541 and 0.552
[2]; [16]
  Average value (measurement at 630 nm): 0.753
  Measurement at 630 nm: 0.73 and 0.766 and 0.762
[2]; [17]
  Average value (measurement at 630 nm): 1.069
  Measurement at 630 nm: 1.049 and 1.088 and 1.07

## O=C(O)CCCC[C@@H]1SC[C@@H]2NC(=O)N[C@@H]21 [Biotin, biotin]
[3]; biotin standard 0.003 μg/100 g
  Average value (measurement at 630 nm): 0.204
  Measurement at 630 nm: 0.205 and 0.204 and 0.203
[3]; biotin standard 0.009 μg/100 g
  Average value (measurement at 630 nm): 0.499
  Measurement at 630 nm: 0.506 and 0.5 and 0.491
[3]; biotin standard 0.015 μg/100 g
  Average value (measurement at 630 nm): 0.685
  Measurement at 630 nm: 0.676 and 0.693 and 0.686
[3]; biotin standard 0.021 μg/100 g
  Average value (measurement at 630 nm): 0.823
  Measurement at 630 nm: 0.826 and 0.822 and 0.82
[3]; biotin standard 0.027 μg/100 g
  Average value (measurement at 630 nm): 0.985
  Measurement at 630 nm: 0.986 and 0.988 and 0.982

## Nc1nc2ncc(CNc3ccc(C(=O)N[C@@H](CCC(=O)O)C(=O)O)cc3)nc2c(=O)[nH]1 [Folic acid, folic acid]
[4]; [18]
  Average value (measurement at 630 nm): 0.264
  Measurement at 630 nm: 0.269 and 0.261
[4]; [19]
  Average value (measurement at 630 nm): 0.545
  Measurement at 630 nm: 0.556 and 0.536 and 0.544
[4]; [20]
  Average value (measurement at 630 nm): 0.793
  Measurement at 630 nm: 0.784 and 0.788 and 0.807
[4]; [21]
  Average value (measurement at 630 nm): 0.999
  Measurement at 630 nm: 0.986 and 1.002 and 1.01
[4]; [22]
  Average value (measurement at 630 nm): 1.094
  Measurement at 630 nm: 1.121 and 1.074 and 1.087

## Niacytine
[5]
  Consumption by the test organism: not consumed

## calcium pantothenate [Ca pantothenate]
[6]; [23]
  Average value (measurement at 630 nm): 0.076
  Measurement at 630 nm: 0.075 and 0.08 and 0.073
[6]; [24]
  Average value (measurement at 630 nm): 0.179
  Measurement at 630 nm: 0.179 and 0.178 and 0.181
[6]; [25]
  Average value (measurement at 630 nm): 0.395
  Measurement at 630 nm: 0.389 and 0.404 and 0.392
[6]; [26]
  Average value (measurement at 630 nm): 0.491
  Measurement at 630 nm: 0.49 and 0.493 and 0.491
[6]; [27]
  Average value (measurement at 630 nm): 0.59
  Measurement at 630 nm: 0.589 and 0.594 and 0.588

## cyanocobalamine [Vitamin B12]
[7]; [28]
  Average value (measurement at 630 nm): 0.268
  Measurement at 630 nm: 0.264 and 0.271 and 0.269
[7]; [29]
  Average value (measurement at 630 nm): 0.515
  Measurement at 630 nm: 0.51 and 0.503 and 0.531
[7]; [30]
  Average value (measurement at 630 nm): 0.728
  Measurement at 630 nm: 0.727 and 0.721 and 0.736
[7]; [31]
  Average value (measurement at 630 nm): 0.869
  Measurement at 630 nm: 0.88 and 0.863 and 0.865
[7]; [32]
  Average value (measurement at 630 nm): 1.069
  Measurement at 630 nm: 1.086 and 1.073 and 1.048
